Measured values as given in US9828384B2, “Spiro-lactam NMDA receptor modulators and uses thereof” (Aptinyx Inc., priority 2013, dated 2017).
Where two headings read alike, the source gives them in different places.

How the values were obtained:
[1] = Porsolt floating time inhibition; format: in vivo; settings: 1 hour post dose
NMDA receptor = biological target: T1, NMDA receptor (Rattus norvegicus, UniProt P35439); experiment: [3H] MK-801 Binding Assay (MK-801 Glycine Site Binding Assay: Rat Cortex)
T1 construct: well washed rat cortical membranes (200 μg); from tissue; host or cells: rat cerebral cortex membranes
Description: Assays were conducted as described in Moskal et al. (Moskal, J. R., Kuo, A. G., Weiss, C., Wood, P. L., O'Connor Hanson, A., Kelso, S., Harris, R. B., Disterhoft, J. F., 2005. GLYX-13: a monoclonal antibody-derived peptide that acts as an N-methyl-D-aspartate receptor modulator. Neuropharmacology. 49, 1077-87) The potentiation of [^3H]MK-801 binding (5 nM; 22.5 Ci/mmol) to well washed rat cortical membranes (200 μg) was measured under non-equilibrium conditions (15 min @25° C.) in the presence of increasing concentrations of test compounds and 50 μM glutamate. Zero levels were determined in the absence of any glycine ligand and in the presence of 30 μM 5,7 DCKA. Maximal stimulation was measured in the presence of 1 mM glycine, and 50 μM glutamate was present in all samples. The facilitation of [^3H]MK-801 binding by tests compounds was calculated by using a 3 parameter log agonist vs. response equation (Graph pad Prism, USA) and potency (EC50, expressed in pM) and maximal activity (% maximal stimulation) were calculated for the test compound.

LTP = LTP augmentation; settings: LTP concentration 1 uM
[2] = Table 3, read-out: MK-801 Glycine Site Binding Assay: Rat Cortex EC50

Row | EC50 (NMDA receptor; [2]) [pM] | Compound | Unified Activity Data: LTP Augmentation (Percent) (LTP) [%] | LTP: LTP Augmentation (%) (LTP) | other results
1 | – | CC(O)C(c1ncccn1)N1CC2(CCCN2)C1=O (centres unmarked) [Compound Y, 2-(2-hydroxy-1-(pyrimidin-2-yl)propyl)-2,5-diazaspiro[3.4]octan-1-one] | 140 | – | Unified Activity Data: Porsolt Floating Time Inhibition (Percent) ([1]; 3 mg/kg IV): 92%; EC50 (NMDA receptor; Table 2, read-out: MK-801 Glycine Site Binding Assay: Rat Cortex EC50): 288 pM; Emax (NMDA receptor; maximal stimulation measured with 1 mM glycine, 50 μM glutamate): 14%; EC50 (NMDA receptor; rat cortical membranes, 50 μM glutamate, read-out: potency (EC50) for potentiation of [3H]MK-801 binding): 288 pM
2 | – | CC1N([C@@H](c2nnco2)[C@H](C)O)C(=O)C12CCCN2C(=O)OC(C)(C)C (stereo partly drawn) [Compound C-26, tert-butyl 2-((1R, 2S)-2-hydroxy-1-(1,3,4-oxadiazol-2-yl)propyl)-1-methyl-3-oxo-2,5-diazaspiro[3,4]octane-5-carboxylate] | – | 65 | –
3 | 110 | CC(O)C(c1ncccn1)N1CC2(CCC(C)N2C(=O)OC(C)(C)C)C1=O (centres unmarked) [Compound C-19, tert-butyl 2-(2-hydroxy-1-(pyrimidin-2-yl)propyl)-6-methyl-1-oxo-2,5-diazaspiro[3,4]octane-5-carboxylate] | – | 110 | –
4 | – | C[C@@H](O)[C@@H](c1ncno1)N1CC2(CCCN2C(=O)OC(C)(C)C)C1=O (stereo partly drawn) [Compound C-15, tert-butyl 2-((1S,2R)-2-hydroxy-1-(1,2,4-oxadiazol-5-yl)propyl)-1-oxo-2,5-diazaspiro[3,4]octane-5-carboxylate] | 120 | – | Unified Activity Data: Porsolt Floating Time Inhibition (Percent) ([1]; 1 mg/kg PO): 86%
5 | 135 | CC(O)C(c1ncccn1)N1C(=O)C2(CCCN2C(=O)OC(C)(C)C)C1C (centres unmarked) [Compound C-29, tert-butyl 2-(2-hydroxy-1-(pyrimidin-2-yl)propyl)-1-methyl-3-oxo-2,5-diazaspiro[3,4]octane-5-carboxylate] | – | 125 | –

Row | Compound | EC50 (NMDA receptor; [2]) [pM] | Unified Activity Data: LTP Augmentation (Percent) (LTP) [%] | LTP: LTP Augmentation (%) (LTP) | other results
6 | 2-(2-hydroxy-1-(pyrimidin-2-yl)propyl)-3,6-dimethyl-2, 5-diazaspiro[3,4]octan-1-one [Compound C-33] | 7.13 | – | 30 | –
